Test results as given in ChEMBL document CHEMBL1143771, “Isothiazoles as active-site inhibitors of HCV NS5B polymerase” (Bioorg Med Chem Lett, 2007).

Assays:
[1] = Inhibition of HCV recombinant NS5B polymerase; set-up: species or system Hepacivirus hominis
[2] = tested on: Hepatitis C virus; test: Antiviral activity against Hepatitis C virus by cell based replicon assay; assay type: functional, organism-based, Hepacivirus hominis

Row | Structure (SMILES) | IC50 [1] [nM] | EC50 [2] [nM]
1 | COC(=O)c1ccc(-c2ccc(Cl)cc2Nc2snc(O)c2C#N)o1 | 1800 | –
2 | COC(=O)c1cc(Nc2snc(O)c2C#N)cc(C(F)(F)F)c1 | 2000 | –
3 | N#Cc1c(O)nsc1Nc1cc(C(F)(F)F)cc(C(F)(F)F)c1 | 5900 | 2000
4 | Cc1cc(C)cc(Nc2snc(O)c2C#N)c1 | > 100000 | –
5 | N#Cc1c(O)noc1Nc1cc(Br)cc(Br)c1 | 33000 | –
6 | N#Cc1c(O)nsc1Nc1cc(C(=O)O)cc(C(F)(F)F)c1 | 1500 | –
7 | CCCCS(=O)(=O)c1cccc(Nc2snc(O)c2C#N)c1 | 8300 | –
8 | N#Cc1c(O)nsc1Nc1cc(C(F)(F)F)cc(S(=O)(=O)NC23CC4CC(CC(C4)C2)C3)c1 | 3500 | –
9 | N#Cc1c(O)nsc1Nc1cc(Cl)cc(S(=O)(=O)NC23CC4CC(CC(C4)C2)C3)c1 | 1800 | –
10 | N#Cc1c(O)nsc1Nc1cccc(S(N)(=O)=O)c1 | 9700 | –
11 | N#Cc1c(O)nsc1Nc1cc(Br)ccc1OCc1ccc2ccccc2c1 | 1700 | –
12 | CS(=O)(=O)c1cccc(Nc2snc(O)c2C#N)c1 | 9700 | –
13 | COc1cccc(Nc2snc(O)c2C#N)c1 | > 100000 | –
14 | N#Cc1c(O)nsc1Nc1nc2ccc(F)cc2s1 | 44000 | –
15 | N#Cc1c(O)nsc1Nc1cccc(S(=O)(=O)NC23CC4CC(CC(C4)C2)C3)c1 | 1400 | –
16 | N#Cc1c(O)nsc1Nc1cc(Cl)ccc1OCc1ccc2ccccc2c1 | 6400 | –
17 | COC(=O)c1ccc(Cl)cc1Nc1snc(O)c1C#N | 4700 | –

The next compounds have a lower IC50 [1] than those just listed; values first:

Row | IC50 [1] [nM] | EC50 [2] [nM] | Structure (SMILES)
18 | 300 | 220 | N#Cc1c(O)nsc1Nc1cc(F)cc(F)c1
19 | 1000 | – | N#Cc1c(O)nsc1Nc1cc(Cl)ccc1OCc1ccccc1
20 | 900 | 2900 | N#Cc1c(O)nsc1Nc1cccc(F)c1
21 | 1300 | – | N#Cc1c(O)nsc1Nc1ccccc1Oc1ccccc1
22 | 300 | – | N#Cc1c(O)nsc1Nc1cc(Br)ccc1OCc1ccccc1
23 | 200 | 100 | N#Cc1c(O)nsc1Nc1cc(Cl)cc(Cl)c1
24 | 1200 | – | N#Cc1c(O)nsc1Nc1ccc(F)cc1
25 | 700 | – | N#Cc1c(O)nsc1Nc1ccc(Cl)cc1Cl
26 | 1200 | 1100 | N#Cc1c(O)nsc1Nc1ccc(I)cc1
27 | 300 | – | N#Cc1c(O)nsc1Nc1cc(Br)cc(C(F)(F)F)c1
28 | 500 | 3400 | N#Cc1c(O)nsc1Nc1cc(F)ccc1Oc1ccccc1
